# Source: patent publication US20220264878A1, “HERBICIDAL COMPOSITION CONTAINING R-TYPE PYRIDYLOXY CARBOXYLIC ACID DERIVATIVE AND USE THEREOF” (Qingdao Kingagroot Chemical Compound Co., Ltd., priority 2019, published 2022)
# Tests used:
# Assay type in all cases: in vivo
# Echinochloa oryzoides = test: Soil sealing treatment, pot culture, fresh weight inhibition (Tables 149, 150)
# Method: (§1) A method for investigating absolute number was employed, wherein whole seedlings of survival weeds were cut off with a blade along the soil surface, and the fresh weight of the weeds was weighed with an analytical balance. For dead weeds, the fresh weight thereof was zero.
# (§2) Theoretical fresh weight inhibition rate of a combination of two active ingredients in each group was calculated by the Gowing method (E0=X+Y−X*Y/100), and then compared with an actually measured inhibition rate (E), thereby effect of the combination (hereafter referred to as combined effect) on weeds was evaluated: the value of E-E0, which was greater than 10%, corresponded to a synergistic effect, the value of E-E0, which was less than −10%, corresponded to an antagonistic effect, and the value of E-E0, which was from −10% to 10%, corresponded to an additional effect. […] Wherein, in the formula, X represented the fresh weight inhibition rate of the active ingredient A in a dosage of P, and Y represented the fresh weight inhibition rate of the active ingredient B in a dosage of Q.
# (§3) Echinochloa crusgalli var zelayensis were collected in Huai'an of Jiangsu Province; Echinochloa caudate were collected in Pingluo of Ningxia Province; Echinochloa oryzoides were collected in Qiqiha'er of Heilongjiang Province.
# (§4) The culture was carried out in a controllable sunlight greenhouse at 20 to 30° C., in natural light, and relative humidity of 57% to 72%. […] The test soil was placed quantitatively to ¾ of the pots and then watered from the bottom of the pots to completely wet the soil to saturation. The pretreated test weed seeds were uniformly sowed on the surface, then covered with 0.5-2 cm soil according to the seed size, and ready-for use 24 hours after sowing.
# (§5) The technical materials were all dissolved in acetone, and diluted with an aqueous solution containing 0.1% emulsifier T-80. The dilution is performed as required.
# (§6) A ratio of A to the active ingredient B and amounts thereof in each group depends on the characteristics and toxicity of the two agents, as well as the main application purpose of a corresponding formulation. Based on the pre-tests in this study, the dosage of A and the active ingredient B applied alone and in combination were shown in the tables. Water containing the solvent and emulsifier same with the above groups but free of the agents was used as a blank control.
# (§7) 3 pots with 30 weed seeds per pot were treated in one treatment with 4 replications per treatment.
# (§8) The pots which were sowed and mulched were evenly placed on a platform with an area of 0.5 m^2, and a solution of agents was sprayed on soil surface thereof by the 3WP-2000-type walking spray tower at a dosage of […] and at a spray pressure of 0.3 MPa. After all the solution was sprayed, the valve was closed. After 30 seconds, the door of the spray tower was opened, and the nutritional bowl was taken out. Then the valve was opened, and the spray tube was cleaned by spraying 50 ml of water.
# (§9) This section was same as the section 4) in the post-emergence treatment by performing foliage spray, and was not repeated herein.
# Echinochloa caudate = test: Soil sealing treatment, pot culture, fresh weight inhibition (Tables 99, 100)
# Method: as §1, §2, §3, §4, §5, §6, §7, §8, §9
# [1] = system: Echinochloa crusgalli var. zelayensis; test: Soil sealing treatment, pot culture, fresh weight inhibition (Tables 49, 50)
# Method: as §1, §2, §3, §4, §5, §6, §7, §8, §9
# Galium aparine L. = test: Post-emergence foliage spray, pot culture, fresh weight inhibition (Tables 1-48, 51-98, 101-148; 24 days); settings: 24 days
# Method in brief: (§10)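 Pot-grown weeds were thinned to 15 per pot (45 per treatment) and sprayed on foliage at the 5–6-leaf stage for grasses or the 6–7-leaf stage for broadleaves. Agents were dissolved in acetone with 0.1% Tween-80 and applied at 450 kg/ha spray volume and 0.3 MPa. Plants were then kept in a greenhouse. Above-ground fresh weight of survivors, with dead plants counted as zero, gave inhibition versus a solvent/emulsifier blank.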
# Stellaria media = test: as above; settings: Table 105
# Method in brief: as §10
# Malachium aquaticum = test: as above
# Method in brief: as §10
# Ammannia arenaria = test: as above; settings: Table 103
# Method in brief: (§11)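 Greenhouse pot-grown weeds (15 per pot, 3 pots, 4 replicates) at the 5–6-leaf (grasses) or 6–7-leaf (broadleaf) stage were sprayed once on foliage at 450 kg/ha spray volume, 0.3 MPa. Acetone solutions were diluted in 0.1% Tween-80. Aboveground fresh weight versus blank control was recorded after 24 days.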
# Eclipta prostrate = test: as above; settings: 24 days
# Method in brief: as §11
# Ludwigia prostrate = test: as above
# Method in brief: as §11
compound,measurement,setting,value
C#CCOc1cc(-n2nc(C(C)(C)C)oc2=O)c(Cl)cc1Cl [oxadiargyl],Control effect (%) of B applied alone in corresponding dose,Echinochloa oryzoides; B 7.5 g a.i./ha,2.6%
same,Control effect (%) of B applied alone in corresponding dose,Echinochloa oryzoides; B 15 g a.i./ha,12.7%
same,Control effect (%) of B applied alone in corresponding dose,Echinochloa oryzoides; B 30 g a.i./ha,41.6%
same,Control effect (%) of B applied alone in corresponding dose,Echinochloa oryzoides; B 60 g a.i./ha,63.3%
same,Control effect (%) of B applied alone in corresponding dose,"Echinochloa caudate; Table 100, 7.5 g a.i./ha",1.7%
same,Control effect (%) of B applied alone in corresponding dose,"Echinochloa caudate; Table 100, 15 g a.i./ha",10.8%
same,Control effect (%) of B applied alone in corresponding dose,"Echinochloa caudate; Table 100, 30 g a.i./ha",37.2%
same,Control effect (%) of B applied alone in corresponding dose,"Echinochloa caudate; Table 100, 60 g a.i./ha",62.5%
same,Control effect (%) of B applied alone in corresponding dose,[1]; oxadiargyl 7.5 g a.i./ha,1.6%
same,Control effect (%) of B applied alone in corresponding dose,[1]; oxadiargyl 15 g a.i./ha,10.4%
same,Control effect (%) of B applied alone in corresponding dose,[1]; oxadiargyl 30 g a.i./ha,38.8%
same,Control effect (%) of B applied alone in corresponding dose,[1]; oxadiargyl 60 g a.i./ha,63.5%
COc1ncc(F)c2nc(S(=O)(=O)Nc3c(F)cccc3F)nn12 [florasulam],Control effect (%) of B applied alone in corresponding dose,Galium aparine L.; B 0.375 g a.i/ha,4.8%
same,Control effect (%) of B applied alone in corresponding dose,Galium aparine L.; B 0.75 g a.i/ha,20.6%
same,Control effect (%) of B applied alone in corresponding dose,Galium aparine L.; B 1.5 g a.i/ha,56.3%
same,Control effect (%) of B applied alone in corresponding dose,Galium aparine L.; B 3.0 g a.i/ha,76.2%
same,Control effect (%) of B applied alone in corresponding dose,Stellaria media; 0.375 g a.i./ha,6.8%
same,Control effect (%) of B applied alone in corresponding dose,Stellaria media; 0.75 g a.i./ha,22.3%
same,Control effect (%) of B applied alone in corresponding dose,Stellaria media; 1.5 g a.i./ha,56.9%
same,Control effect (%) of B applied alone in corresponding dose,Stellaria media; 3.0 g a.i./ha,76.6%
same,Control effect (%) of B applied alone in corresponding dose,Malachium aquaticum; florasulam 0.375 g a.i./ha,3.6%
same,Control effect (%) of B applied alone in corresponding dose,Malachium aquaticum; florasulam 0.75 g a.i./ha,17.4%
same,Control effect (%) of B applied alone in corresponding dose,Malachium aquaticum; florasulam 1.5 g a.i./ha,56.4%
same,Control effect (%) of B applied alone in corresponding dose,Malachium aquaticum; florasulam 3.0 g a.i./ha,77.6%
CCOC(=O)c1cnn(C)c1S(=O)(=O)NC(=O)Nc1nc(OC)cc(OC)n1 [pyrazosulfuron-ethyl],Control effect (%) of B applied alone in corresponding dose,Ammannia arenaria; 1.875 g a.i./ha,16.3%
same,Control effect (%) of B applied alone in corresponding dose,Ammannia arenaria; 3.75 g a.i./ha,26.1%
same,Control effect (%) of B applied alone in corresponding dose,Ammannia arenaria; 7.5 g a.i./ha,52.8%
same,Control effect (%) of B applied alone in corresponding dose,Ammannia arenaria; 15 g a.i./ha,77.2%
same,Control effect (%) of B applied alone in corresponding dose,Eclipta prostrate; B 1.875 g a.i/ha,9.5%
same,Control effect (%) of B applied alone in corresponding dose,Eclipta prostrate; B 3.75 g a.i/ha,19.9%
same,Control effect (%) of B applied alone in corresponding dose,Eclipta prostrate; B 7.5 g a.i/ha,51.0%
same,Control effect (%) of B applied alone in corresponding dose,Eclipta prostrate; B 15 g a.i/ha,76.1%
same,Control effect (%) of B applied alone in corresponding dose,Ludwigia prostrate; pyrazosulfuron-ethyl 1.875 g a.i./ha,7.6%
same,Control effect (%) of B applied alone in corresponding dose,Ludwigia prostrate; pyrazosulfuron-ethyl 3.75 g a.i./ha,13.0%
same,Control effect (%) of B applied alone in corresponding dose,Ludwigia prostrate; pyrazosulfuron-ethyl 7.5 g a.i./ha,52.2%
same,Control effect (%) of B applied alone in corresponding dose,Ludwigia prostrate; pyrazosulfuron-ethyl 15 g a.i./ha,75.3%
